Data: US20250090510A1, “eIF4G1-eIF1 INHIBITORS AND USE THEREOF” (YEDA RESEARCH AND DEVELOPMENT CO. LTD., priority 2022, published 2025)

How the values were obtained:
[1] = biological target: rabbit reticulocyte lysate; test: In-vitro translation of capped firefly luciferase mRNA; type: biochemical; conditions: 10 minutes pre-incubation, 90 minutes at 30° C.
[2] = tested on: HEK293T cells; test: Polysome profile by sucrose gradient sedimentation; type: cell-based, human; conditions: i14G1-12 10 μM, 3 h; for 80S monoribosomes in polysome profile: i14G1-10 20 μM
Protocol: FIGS. 3A-F: i14G1-10 and i14G1-12 inhibit mRNA translation and sensitize cell survival of eIF4G1 and eIF1 depleted cells. (3A) In-vitro translation using rabbit reticulocyte lysate which was pre-incubated with different concentrations of i14G1-10 or i14G1-12 for 10 minutes followed by the addition of capped firefly luciferase mRNA. After 90 minutes at 30° C., the luminescence signal was measured and the IC50 was calculated. The data represents mean±SEM of 6 independent repeats. (3B) HEK293T cells were treated with DMSO (vehicle control), and sub-cytotoxic concentrations of i14G1-10 (20 μM) and i14G1-12 (10 μM) for 3h. Cell lysates were then subjected to sucrose gradient sedimentation to obtain polysome profiles. (3C) HEK293T cells were treated with the indicated concentrations of i14G1-10 and i14G-12 for 3 h, followed by the addition of puromycin (10 μg/ml) for 5 minutes, after which cells were lysed and analyzed by western blot using an anti-puromycin antibody and anti-GAPDH antibody that serves as a loading control. The graph represents the mean±SEM chemiluminescence signal intensity of puromycin labeling normalized to GAPDH of 3 independent experiments. The calculated IC-50 is shown. (3D) HEK293T cells were transfected with either control or eIF4G1 siRNA in the absence or presence of eIF4G1 expression plasmid. As the eIF4G1 siRNA pool is directed against the 3′UTR, which is absent from the eIF4G1 expression plasmid, the exogenous eIF4G1 is resistant to the siRNA. […] The calculated IC-50 is shown. (3E) The graphs represent cell viability of the indicated cell lines in the presence of increasing concentrations of i14G1-10 and i14G1, analyzed by Luminescent Cell Viability Assay. […]
Polysome profile and real-time PCR. […] Gradients were fractionated with continuous absorbance measurement at 254 nm using ISCO absorbance detector UA-6. Fractions were pooled according to their absorbance into Free, Light, and Heavy ribosomal fractions. […]

[3] = tested on: parental NIH3T3 cells; test: Polysome profiling and real-time PCR in parental cells; type: cell-based, mouse; conditions: i14G1-10 30 μM, i14G1-12 15 μM, 3 h
[4] = tested on: Plasmodium falciparum NF54 strain; test: Parasitemia assay in blood cultures; type: cell-based; conditions: i14G1-10 20 uM, i14G1-12 10 uM; 1 hour, wash, measured 24 hours later
Protocol: FIGS. 8A-B: (8A) Bar graph of percent parasitemia in blood samples treated with i14G1-10 (20 μM) and i14G1-12 (10 μM) for 1 hour. DMSO treatment was used as a negative control. *=pVal; <0.05, ***=pVal<0.001 (8B) Photograph of a western blot and corresponding gel total protein staining of P. falciparum blood cultures treated with the inhibitors with or without the addition of puromycin. DMSO treatment and untreated cultures were used as a negative control.
From the same flask with -3-4% parasitemia, parasites were plated at 5 ml/well into six well-plates. To the trophozoite stage of development, i14G1-10, i14G1-12, or DMSO, were added and incubated at 37° C. with shaking. After one hour of incubation, from each sample, 1 ml of culture was taken. […]
The next day, the parasitemia (the number of iRBCs divided by the number of total RBCs) was measured by microscopy. The gold-standard method for identifying and quantifying malaria parasites as disclosed in Murphy et al., 2013, “Malaria diagnostics in clinical trials.” Am J Trop Med Hyg., 89(5):824-39, herein incorporated by reference in its entirety, was used. […] Infected RBCs were quantified by eye. No less than 30 fields of view were counted to find the final parasitemia percent.
Parasitaemia levels were measured 24 hours later.

Row | SMILES | IC50 [1] [µM] | 80S monoribosomes in polysome profile [2] | overall translation, polysome to monosome ratio (P/M) [3] | translation of ISR genes in polysome fractions [3] | reduction of parasite levels (parasitaemia) [4] [%] | heavy polysomal fractions in polysome profile [2]
1 | O=C(/C=C/Sc1ccc(C(F)(F)F)cn1)c1ccccc1 [i14G1-10] | 5.44 | increase in 80S monoribosomes | significant reduction in translation efficiency | upregulated | 42 | 
2 | Cn1ccnc1S/C(=C/C=C(C#N)C#N)c1ccc(Cl)cc1 [i14G1-12] | 4.14 | increase in 80S monoribosomes | significant reduction in translation efficiency | upregulated | 69 | substantial decrease in the heavy polysomal fractions
